Values of other authors in patent publication US20120252835A1, “STABLE TEMSIROLIMUS COMPOSITION AND PROCESS OF PREPARING SAME” (ASTRON RESEARCH LIMITED, priority 2011, published 2012).

## Rapamycin, 42-[3-hydroxy-2-(hydroxymethyl)-2-methylpropanoate] [Temsirolimus]
ethanol, propylene glycol, polyethylene glycol and the likes
  Solubility in alcohols acceptable for parenteral administration: soluble
water
  Solubility in water: practically insoluble
